Data taken from ChEMBL document CHEMBL4831544, “Discovery of IHMT-EZH2-115 as a Potent and Selective Enhancer of Zeste Homolog 2 (EZH2) Inhibitor for the Treatment of B-Cell Lymphomas” (J Med Chem, 2021).

Assays:
[1] = target: N-lysine methyltransferase SMYD2 (Homo sapiens) (UniProt Q9NRG4); test: Inhibition of SMYD2 (unknown origin) at 10 uM using SAM as substrate measured up to 960 mins by AlphaScreen microplate reader assay relative to control; settings: time min <=960
[2] = system: Histone-lysine N-methyltransferase EZH2 (Homo sapiens), Q15910 [P132S]; test: Inhibition of EZH2 P132S mutant (unknown origin) at 10 uM using SAM as substrate measured up to 960 mins by AlphaScreen microplate reader assay relative to control; settings: time min <=960
Chain of Histone-lysine N-methyltransferase EZH2 (Homo sapiens), Q15910 [P132S] (Q15910 whole entry P132S): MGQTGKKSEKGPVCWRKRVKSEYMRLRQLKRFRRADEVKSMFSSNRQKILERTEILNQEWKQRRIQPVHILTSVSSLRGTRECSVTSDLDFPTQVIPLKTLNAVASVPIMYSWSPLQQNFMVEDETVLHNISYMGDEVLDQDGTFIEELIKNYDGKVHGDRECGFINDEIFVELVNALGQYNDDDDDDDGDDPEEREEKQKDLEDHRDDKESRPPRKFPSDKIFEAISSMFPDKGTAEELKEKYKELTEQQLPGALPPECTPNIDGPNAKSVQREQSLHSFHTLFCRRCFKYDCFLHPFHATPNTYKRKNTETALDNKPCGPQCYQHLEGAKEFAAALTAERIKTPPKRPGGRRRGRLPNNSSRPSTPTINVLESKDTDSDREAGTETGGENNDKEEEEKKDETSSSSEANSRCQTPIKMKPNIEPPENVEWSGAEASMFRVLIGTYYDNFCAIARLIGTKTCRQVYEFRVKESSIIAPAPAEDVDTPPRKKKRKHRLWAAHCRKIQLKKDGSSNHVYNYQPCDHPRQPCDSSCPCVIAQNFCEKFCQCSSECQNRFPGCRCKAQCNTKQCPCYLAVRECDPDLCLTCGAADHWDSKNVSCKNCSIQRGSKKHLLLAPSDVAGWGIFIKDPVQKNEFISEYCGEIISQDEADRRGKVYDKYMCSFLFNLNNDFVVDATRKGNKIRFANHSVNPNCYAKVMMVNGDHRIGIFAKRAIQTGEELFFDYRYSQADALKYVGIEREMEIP

[3] = Clearance in mouse at 10 mg/kg, po measured up to 24 hrs by LC-MS/MS analysis; type: ADME, organism-based; settings: in vivo
SU-DHL-6 = test: Antiproliferative activity against human SU-DHL-6 cells harboring EZH2 Y641N mutant assessed as inhibition of cell growth measured after 6 days by CellTiter-Glo luminescent assay; type: functional; settings: SU-DHL-6, 144 h, time 6 day
[4] = Toxicity in NCG mouse xenografted with human Pfeiffer cells harboring EZH2 A677G mutant assessed as effect on body weight at 50 to 200 mg/kg, po BID via gavage measured after 28 days; type: organism-based; settings: in vivo, 672 h, dose 50-200 mg/kg, time 28 day
KARPAS-422 = test: Antitumor activity against human KARPAS-422 cells harboring EZH2 Y641N mutant xenografted in NCG mouse assessed as change in tumor weight at 50 mg/kg, po BID via gavage measured after 28 days (reference value: 2.14 g); type: functional; settings: time 28 day
[5] = system: Histone-lysine N-methyltransferase EZH2 (Homo sapiens), Q15910 [A677G]; test: Inhibition of EZH2 A677G mutant (unknown origin) at 10 uM using SAM as substrate measured up to 960 mins by AlphaScreen microplate reader assay relative to control; settings: time min <=960
Chain of Histone-lysine N-methyltransferase EZH2 (Homo sapiens), Q15910 [A677G] (Q15910 whole entry A677G): as the sequence (Q15910 whole entry P132S) above, with S132P, A677G counted along it

[6] = Half life in rat at 1 mg/kg, iv; type: ADME, organism-based; settings: in vivo
[7] = target: Protein arginine N-methyltransferase 6 (Homo sapiens) (UniProt Q96LA8); test: Inhibition of PRMT6 (unknown origin) at 10 uM using SAM as substrate measured up to 960 mins by AlphaScreen microplate reader assay relative to control; settings: time min <=960
[8] = Half life in rat at 10 mg/kg, po; type: ADME, organism-based; settings: in vivo
[9] = Apparent volume of distribution in rat at 1 mg/kg, iv; type: ADME, organism-based; settings: in vivo, read-out: Vz
[10] = system: Histone-lysine N-methyltransferase EZH2 (Homo sapiens), Q15910 [Y641H]; test: Inhibition of EZH2 Y641H mutant (unknown origin) at 10 uM using SAM as substrate measured up to 960 mins by AlphaScreen microplate reader assay relative to control; settings: time min <=960
[11] = target: Histone-lysine N-methyltransferase SMYD3 (Homo sapiens) (UniProt Q9H7B4); test: Inhibition of SMYD3 (unknown origin) at 10 uM using SAM as substrate measured up to 960 mins by AlphaScreen microplate reader assay relative to control; settings: time min <=960
[12] = target: Protein arginine N-methyltransferase 1 (Homo sapiens) (UniProt Q99873); test: Inhibition of PRMT1 (unknown origin) at 10 uM using SAM as substrate measured up to 960 mins by AlphaScreen microplate reader assay relative to control; settings: time min <=960
Chain of Protein arginine N-methyltransferase 1 (Homo sapiens) (Q99873 whole entry, looked up): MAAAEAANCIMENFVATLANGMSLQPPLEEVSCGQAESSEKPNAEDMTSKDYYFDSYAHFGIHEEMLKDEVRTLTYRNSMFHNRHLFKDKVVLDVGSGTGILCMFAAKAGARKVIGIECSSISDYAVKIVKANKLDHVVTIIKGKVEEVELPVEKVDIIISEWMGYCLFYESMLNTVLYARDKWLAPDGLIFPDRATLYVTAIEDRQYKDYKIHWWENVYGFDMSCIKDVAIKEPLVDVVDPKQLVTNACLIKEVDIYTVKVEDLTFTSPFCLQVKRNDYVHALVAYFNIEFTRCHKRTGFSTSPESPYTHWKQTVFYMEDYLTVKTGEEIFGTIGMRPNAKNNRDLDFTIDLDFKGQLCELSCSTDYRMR

[13] = target: F-box only protein 11 (Homo sapiens) (UniProt Q86XK2); test: Inhibition of PRMT9 (unknown origin) at 10 uM using SAM as substrate measured up to 960 mins by AlphaScreen microplate reader assay relative to control; settings: time min <=960
Chain of F-box only protein 11 (Homo sapiens) (Q86XK2 whole entry): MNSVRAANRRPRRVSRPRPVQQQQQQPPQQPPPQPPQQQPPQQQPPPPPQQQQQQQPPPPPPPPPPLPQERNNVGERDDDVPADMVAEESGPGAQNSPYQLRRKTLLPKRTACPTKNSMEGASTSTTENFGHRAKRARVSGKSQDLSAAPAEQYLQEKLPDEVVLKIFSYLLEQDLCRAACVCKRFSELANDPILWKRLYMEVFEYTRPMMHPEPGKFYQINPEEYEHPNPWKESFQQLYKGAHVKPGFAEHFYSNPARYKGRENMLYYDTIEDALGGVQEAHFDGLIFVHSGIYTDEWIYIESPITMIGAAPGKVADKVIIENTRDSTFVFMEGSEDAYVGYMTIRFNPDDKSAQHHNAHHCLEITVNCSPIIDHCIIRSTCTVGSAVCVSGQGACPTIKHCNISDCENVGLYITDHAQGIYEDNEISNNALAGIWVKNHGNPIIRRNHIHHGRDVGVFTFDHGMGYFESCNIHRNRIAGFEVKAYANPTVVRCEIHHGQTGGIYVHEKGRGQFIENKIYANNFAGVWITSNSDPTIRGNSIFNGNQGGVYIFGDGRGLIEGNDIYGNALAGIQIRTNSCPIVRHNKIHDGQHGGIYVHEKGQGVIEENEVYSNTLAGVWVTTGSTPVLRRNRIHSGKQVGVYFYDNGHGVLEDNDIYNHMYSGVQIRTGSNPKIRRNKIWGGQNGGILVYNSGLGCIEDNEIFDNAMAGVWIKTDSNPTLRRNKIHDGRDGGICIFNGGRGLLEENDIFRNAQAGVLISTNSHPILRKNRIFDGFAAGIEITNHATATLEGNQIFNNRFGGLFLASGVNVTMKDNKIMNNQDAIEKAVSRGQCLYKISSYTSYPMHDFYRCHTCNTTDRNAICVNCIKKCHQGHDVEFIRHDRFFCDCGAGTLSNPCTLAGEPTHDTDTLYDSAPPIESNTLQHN

U2932 = test: Antiproliferative activity against human U2932 cells expressing wild type EZH2 assessed as inhibition of cell growth measured after 6 days by CellTiter-Glo luminescent assay; type: functional; settings: U2932, 144 h, time 6 day
[14] = target: Histone-lysine N-methyltransferase KMT5B (Homo sapiens) (UniProt Q4FZB7); test: Inhibition of SUV4-20H1 (unknown origin) at 10 uM using SAM as substrate measured up to 960 mins by AlphaScreen microplate reader assay relative to control; settings: time min <=960
[15] = Cmax in rat at 1 mg/kg, iv; type: ADME, organism-based; set-up: route intravenous, dose 1 mg/kg; settings: in vivo
[16] = Half life in mouse at 1 mg/kg, iv measured up to 24 hrs by LC-MS/MS analysis; type: ADME, organism-based; settings: in vivo
[17] = Apparent volume of distribution in mouse at 1 mg/kg, iv measured up to 24 hrs by LC-MS/MS analysis; type: ADME, organism-based; settings: in vivo
[18] = Clearance in rat at 1 mg/kg, iv; type: ADME, organism-based; settings: in vivo
[19] = AUC (0 to infinity) in mouse at 1 mg/kg, iv measured up to 24 hrs by LC-MS/MS analysis; type: ADME, organism-based; set-up: route intravenous, dose 1 mg/kg, time <=24; settings: in vivo
[20] = Apparent volume of distribution in mouse at 10 mg/kg, po measured up to 24 hrs by LC-MS/MS analysis; type: ADME, organism-based; settings: in vivo
[21] = Toxicity in NCG mouse xenografted with human KARPAS-422 cells harboring EZH2 Y641N mutant assessed as effect on body weight at 50 to 200 mg/kg, po BID via gavage measured after 28 days; type: organism-based; settings: in vivo, 672 h, dose 50-200 mg/kg, time 28 day
[22] = target: Histone-arginine methyltransferase CARM1 (Homo sapiens) (UniProt Q86X55); test: Inhibition of PRMT4 (unknown origin) at 10 uM using SAM as substrate measured up to 960 mins by AlphaScreen microplate reader assay relative to control; settings: time min <=960
Chain of Histone-arginine methyltransferase CARM1 (Homo sapiens) (Q86X55 whole entry): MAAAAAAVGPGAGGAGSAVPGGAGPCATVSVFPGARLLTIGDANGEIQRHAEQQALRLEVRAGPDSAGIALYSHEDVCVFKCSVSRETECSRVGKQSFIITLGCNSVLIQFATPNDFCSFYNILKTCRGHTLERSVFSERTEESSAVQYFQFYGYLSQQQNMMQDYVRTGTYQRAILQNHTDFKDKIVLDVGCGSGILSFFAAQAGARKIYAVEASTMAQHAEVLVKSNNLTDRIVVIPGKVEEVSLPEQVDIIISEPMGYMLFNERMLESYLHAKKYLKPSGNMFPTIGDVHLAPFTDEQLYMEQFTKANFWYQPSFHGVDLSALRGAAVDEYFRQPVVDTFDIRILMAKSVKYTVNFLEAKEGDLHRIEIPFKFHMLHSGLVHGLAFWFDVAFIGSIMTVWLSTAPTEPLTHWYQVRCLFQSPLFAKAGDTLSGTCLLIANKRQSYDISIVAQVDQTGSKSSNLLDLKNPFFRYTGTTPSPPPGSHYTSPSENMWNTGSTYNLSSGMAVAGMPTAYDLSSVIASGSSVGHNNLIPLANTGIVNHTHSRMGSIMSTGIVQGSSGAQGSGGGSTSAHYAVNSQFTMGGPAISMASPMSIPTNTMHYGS

[23] = target: Histone-lysine N-methyltransferase SETD2 (Homo sapiens) (UniProt Q9BYW2); test: Inhibition of SETD2 (unknown origin) at 10 uM using SAM as substrate measured up to 960 mins by AlphaScreen microplate reader assay relative to control; settings: time min <=960
[24] = target: Histone-lysine N-methyltransferase SUV39H2 (Homo sapiens) (UniProt Q9H5I1); test: Inhibition of SUV39H2 (unknown origin) at 10 uM using SAM as substrate measured up to 960 mins by AlphaScreen microplate reader assay relative to control; settings: time min <=960
[25] = system: Histone-lysine N-methyltransferase EZH2 (Homo sapiens), Q15910 [UNDEFINED MUTATION]; test: Inhibition of EZH2 A738T mutant (unknown origin) at 10 uM using SAM as substrate measured up to 960 mins by AlphaScreen microplate reader assay relative to control; settings: time min <=960
Chain of Histone-lysine N-methyltransferase EZH2 (Homo sapiens), Q15910 [UNDEFINED MUTATION] (Q15910 whole entry, looked up, stated change not applied): as the sequence (Q15910 whole entry P132S) above, with S132P counted along it

[26] = target: Histone-lysine N-methyltransferase EZH1 (Homo sapiens) (UniProt Q92800); test: Inhibition of EZH1 (unknown origin) at 10 uM using SAM as substrate measured up to 960 mins by AlphaScreen microplate reader assay relative to control; settings: time min <=960
[27] = Clearance in mouse at 1 mg/kg, iv measured up to 24 hrs by LC-MS/MS analysis; type: ADME, organism-based; settings: in vivo
[28] = target: Histone-lysine N-methyltransferase EZH2 (Homo sapiens) (UniProt Q15910); test: Inhibition of EZH2 (unknown origin) at 10 uM using SAM as substrate measured up to 960 mins by AlphaScreen microplate reader assay relative to control; settings: time min <=960
Chain of Histone-lysine N-methyltransferase EZH2 (Homo sapiens) (Q15910 whole entry, looked up): as the sequence (Q15910 whole entry P132S) above, with S132P counted along it

[29] = target: Histone-lysine N-methyltransferase 2A (Homo sapiens) (UniProt Q03164); test: Inhibition of MLL1 (unknown origin) at 10 uM using SAM as substrate measured up to 960 mins by AlphaScreen microplate reader assay relative to control; settings: time min <=960

CCN(C(=O)C1CC1)c1cc(-c2ccc(N3CCN(CC4CC4)CC3)nc2C)cc(C(=O)NCc2c(C)cc(C)[nH]c2=O)c1C
inhibition [1]: 0%
inhibition [2]: 100%
CL [3]: 165.9 mL/min/kg
GI50 (SU-DHL-6): 1100 nM
Activity [4]: Non-Toxic
Activity (KARPAS-422): 1.17 g
inhibition [5]: 87%
half-life [6]: 109 min
inhibition [7]: 0%
half-life [8]: 87 min
Vd [9]: 9.1 L/kg
inhibition [10]: 81%
inhibition [11]: 16%
inhibition [12]: 7%
inhibition [13]: 9%
GI50 (U2932): > 10 µM
inhibition [14]: 0%
Cmax [15]: 406 ng/mL
t1/2 [16]: 5.38 h
Vz [17]: 20833 mL/kg
clearance [18]: 85.5 mL/min/kg
AUC(0-inf) [19]: 372 ng·h/mL
Vz [20]: 18638 mL/kg
Activity [21]: Non-Toxic
inhibition [22]: 0%
inhibition [23]: 0%
inhibition [24]: 8%
inhibition [25]: 100%
inhibition [26]: 92%
CL [27]: 2685 mL/h/kg
inhibition [28]: 100%
inhibition [29]: 12%
